Laboratory results as given in patent US5407918A, “16-membered macrolide derivatives and process for producing the same” (Meiji Seika Kaisha, Ltd., priority 1992, dated 1995).
≈ marks a conversion by molar mass, not a printed value. Like-named read-outs stand apart in the source and are kept apart here.

Assays:
metabolism in plasma = assay type: in vitro ADME, rat; conditions: no free hydroxyl group in the neutral sugar moiety formed
Procedure: Each test compound and 50 μl of a methanol solution (10,000 γ) were added to 950 μl of thawed rat plasma and the resulting mixture was incubated at 37° C. for 24 hours. After completion of the incubation, a 20 μl portion of the mixture was added to 980 μl of 0.05M phosphate buffer (pH 7.6). A 20 μl portion of the sample solution was used to measure antimicrobial activity against M. luteus. Separately, the calibration curve was prepared by using a methanol solution containing each test compound. The starting activity of each compound in the plasma was referred to as 100%.

S. aureus MS15009/pMS98 = test: MIC, agar plate dilution method; assay type: cell-based; conditions: Staphylococcus aureus, MS15009/PMS98, 20 h, read-out: Antimicrobial activity (MIC)
Procedure: (§1) Antimicrobial activities of the compounds of the present invention were determined by measuring minimum inhibitory concentration (MIC). Minimum inhibitory concentration was determined by the agar plate dilution method in the following manner.
(§2) Test strains were subjected to seed culture using Sensitivity test broth (STB, Nissui Pharmaceutical) except that the strains belonging to the genus Streptococcus, Branhamella and Haemophilus were cultured on blood agar plate. A 5 μl portion of cell suspension of the test strains having about 10^6 CFU/ml was inoculated into Sensitivity disk agar (SDA, Nissui Pharmaceutical) supplemented with 5% horse blood and incubated at 37° C. for 20 hours. Then, MIC was measured. For comparison, MDM and leucomycin A7 (LM-A7) was also tested.

S. aureus MS15009/pMS99 = test: MIC, agar plate dilution method; assay type: cell-based; conditions: Staphylococcus aureus, MS15009/PMS99, 20 h, read-out: Antimicrobial activity (MIC)
Procedure: as §1, §2

E. coli NIHJ JC-2 = test: MIC, agar plate dilution method; assay type: cell-based; conditions: Escherichia coli, read-out: Antimicrobial activity (MIC)
Procedure: as §1, §2

S. aureus MS15027 = test: MIC, agar plate dilution method; assay type: cell-based; conditions: Staphylococcus aureus, 37° C., 20 hours, read-out: Antimicrobial activity (MIC)
Procedure: as §1, §2

S. aureus M133 = test: MIC, agar plate dilution method; assay type: cell-based; conditions: Staphylococcus aureus, 37° C., 20 hours, read-out: Antimicrobial activity (MIC)
Procedure: as §1, §2

M. luteus ATCC9341 = test: MIC, agar plate dilution method; assay type: cell-based; conditions: Micrococcus luteus; M. luteus ATCC9341; 37° C., 20 hours; read-out: Antimicrobial activity (MIC)
Procedure: as §1, §2

S. Pyogenes Cook = test: MIC, agar plate dilution method; assay type: cell-based; conditions: Streptococcus pyogenes, 37° C., 20 hours, read-out: Antimicrobial activity (MIC)
Procedure: as §1, §2

B. catarrhalis W-0506 = test: MIC, agar plate dilution method; assay type: cell-based; conditions: Moraxella catarrhalis, W0506, 37° C., 20 hours, read-out: Antimicrobial activity (MIC)
Procedure: as §1, §2

M. pneumoniae FH-P24 = test: MIC, agar plate dilution method; assay type: cell-based; conditions: Mycoplasmoides pneumoniae, FHP24, 20 h, read-out: Antimicrobial activity (MIC)
Procedure: as §1, §2

M. pneumoniae Mac = test: MIC, agar plate dilution method; assay type: cell-based; conditions: Mycoplasmoides pneumoniae, 20 h, read-out: Antimicrobial activity (MIC)
Procedure: as §1, §2

S. pneumoniae IP692 = test: MIC, agar plate dilution method; assay type: cell-based; conditions: Streptococcus pneumoniae; S. pneumoniae IP692; 37° C., 20 hours; read-out: Antimicrobial activity (MIC)
Procedure: as §1, §2

K. pneumoniae PC1602 = test: MIC, agar plate dilution method; assay type: cell-based; conditions: Klebsiella pneumoniae, 37° C., 20 hours, read-out: Antimicrobial activity (MIC)
Procedure: as §1, §2

S. epidermidis ATCC14990 = test: MIC, agar plate dilution method; assay type: cell-based; conditions: Staphylococcus epidermidis, 37° C., 20 hours, read-out: Antimicrobial activity (MIC)
Procedure: as §1, §2

M. pneumoniae Numata = test: MIC, agar plate dilution method; assay type: cell-based; conditions: Mycoplasmoides pneumoniae, 20 h, read-out: Antimicrobial activity (MIC)
Procedure: as §1, §2

S. aureus 209P JC-1 = test: MIC, agar plate dilution method; assay type: cell-based; conditions: Staphylococcus aureus; S. aureus 209P JC-1; 37° C., 20 hours; read-out: Antimicrobial activity (MIC)
Procedure: as §1, §2

M. pneumoniae FH = test: MIC, agar plate dilution method; assay type: cell-based; conditions: Mycoplasmoides pneumoniae, 20 h, read-out: Antimicrobial activity (MIC)
Procedure: as §1, §2

E. faecalis W-73 = test: MIC, agar plate dilution method; assay type: cell-based; conditions: Enterococcus faecalis, read-out: Antimicrobial activity (MIC)
Procedure: as §1, §2

S. aureus MS15026 = test: MIC, agar plate dilution method; assay type: cell-based; conditions: Staphylococcus aureus, 37° C., 20 hours, read-out: Antimicrobial activity (MIC)
Procedure: as §1, §2

B. catarrhalis W-0500 = test: MIC, agar plate dilution method; assay type: cell-based; conditions: Moraxella catarrhalis, W0500, 37° C., 20 hours, read-out: Antimicrobial activity (MIC)
Procedure: as §1, §2

H. influenzae 9334 = test: MIC, agar plate dilution method; assay type: cell-based; conditions: read-out: Antimicrobial activity (MIC)
Procedure: as §1, §2

S. Pneumoniae Type 1 = test: MIC, agar plate dilution method; assay type: cell-based; conditions: Streptococcus pneumoniae, read-out: Antimicrobial activity (MIC)
Procedure: as §1, §2

S. aureus M126 = test: MIC, agar plate dilution method; assay type: cell-based; conditions: Staphylococcus aureus; S. aureus M126; 37° C., 20 hours; read-out: Antimicrobial activity (MIC)
Procedure: as §1, §2

[1] = system: Gram-positive bacteria and Mycoplasma; test: antimicrobial activity in vitro (summary in words); assay type: cell-based; conditions: from Table 1
Procedure: as §1, §2

H. influenzae Type b = test: MIC, agar plate dilution method; assay type: cell-based; conditions: Haemophilus influenzae; H. influenzae Type b; 37° C., 20 hours; read-out: Antimicrobial activity (MIC)
Procedure: as §1, §2

Gram-positive bacteria = test: antimicrobial activity in vitro (summary in words); assay type: cell-based; conditions: from Tables 2 and 3
Procedure: as §1, §2

test strains = test: antimicrobial activity in vitro, comparison in words; assay type: cell-based
Procedure: as §1, §2

Compound	MIC (S. aureus MS15009/pMS98) [µg/mL]	MIC (S. aureus MS15009/pMS99) [µg/mL]	MIC (S. aureus MS15027) [µg/mL]	MIC (S. aureus M133) [µg/mL]	MIC (M. luteus ATCC9341) [µg/mL]	MIC (S. Pyogenes Cook) [µg/mL]	MIC (B. catarrhalis W-0506) [µg/mL]	MIC (S. pneumoniae IP692) [µg/mL]	MIC (K. pneumoniae PC1602) [µg/mL]	MIC (S. epidermidis ATCC14990) [µg/mL]	MIC (S. aureus 209P JC-1) [µg/mL]	MIC (S. aureus MS15026) [µg/mL]	MIC (B. catarrhalis W-0500) [µg/mL]	MIC (S. aureus M126) [µg/mL]	other results
CCCCO[C@H]1[C@H](C)O[C@@H](O[C@H]2[C@H](N(C)C)[C@@H](O)[C@H](O[C@H]3[C@@H](CC=O)C[C@@H](C)[C@@H](O)/C=C/C=C/C[C@@H](C)OC(=O)C[C@@H](OC(=O)CC)[C@@H]3OC)O[C@@H]2C)C[C@@]1(C)OC [(2)]	0.39 (≈ 0.471 µM)	> 100	0.78 (≈ 0.942 µM)	0.78 (≈ 0.942 µM)	0.05 (≈ 0.0604 µM)	0.2 (≈ 0.242 µM)	1.56 (≈ 1.88 µM)	0.05 (≈ 0.0604 µM)	> 100	1.56 (≈ 1.88 µM)	0.39 (≈ 0.471 µM)	> 100	1.56 (≈ 1.88 µM)	> 100	extent of metabolism (metabolism in plasma): hardly metabolized; MIC (E. coli NIHJ JC-2; NIHJJC2, 20 h): > 100 µg/mL; MIC (M. pneumoniae FH-P24): 0.1 µg/mL (≈ 0.121 µM); MIC (M. pneumoniae Mac): 0.1 µg/mL (≈ 0.121 µM); MIC (M. pneumoniae Numata): 0.05 µg/mL (≈ 0.0604 µM); MIC (M. pneumoniae FH): 1.56 µg/mL (≈ 1.88 µM); MIC (E. faecalis W-73; W73, 20 h): 3.13 µg/mL (≈ 3.78 µM); MIC (H. influenzae 9334; Haemophilus influenzae, 9334, 20 h): 6.25 µg/mL (≈ 7.55 µM); MIC (S. Pneumoniae Type 1; 20 h): 0.2 µg/mL (≈ 0.242 µM); antimicrobial activities compared with MDM [1]: comparable to, or even exceeding, that of MDM; antimicrobial activities on Gram-positive bacteria and Mycoplasma [1]: strong antimicrobial activities; degree of loss of the antimicrobial activity in the plasma compared with MOM (M. luteus): lower than that of MOM; duration of antimicrobial activity in rat plasma (M. luteus): extremely long-acting in rat plasma
CCCCCO[C@H]1[C@H](C)O[C@@H](O[C@H]2[C@H](N(C)C)[C@@H](O)[C@H](O[C@H]3[C@@H](CC=O)C[C@@H](C)[C@@H](O)/C=C/C=C/C[C@@H](C)OC(=O)C[C@@H](O)[C@@H]3OC)O[C@@H]2C)C[C@@]1(C)OC [(11)]	0.39 (≈ 0.496 µM)	> 100	0.39 (≈ 0.496 µM)	0.39 (≈ 0.496 µM)	0.05 (≈ 0.0636 µM)	0.1 (≈ 0.127 µM)	0.78 (≈ 0.992 µM)	0.05 (≈ 0.0636 µM)	> 100	0.39 (≈ 0.496 µM)	0.1 (≈ 0.127 µM)	> 100	0.39 (≈ 0.496 µM)	> 100	MIC (E. coli NIHJ JC-2; NIHJJC2, E. coli NIHJ JC-2, 37° C., 20 hours): > 100 µg/mL; MIC (H. influenzae Type b): 12.5 µg/mL (≈ 15.9 µM); MIC (E. faecalis W-73; W73, E. faecalis W-73, 37° C., 20 hours): 0.39 µg/mL (≈ 0.496 µM); MIC (H. influenzae 9334; Haemophilus influenzae, H. influenzae 9334, 37° C., 20 hours): 3.13 µg/mL (≈ 3.98 µM); MIC (S. Pneumoniae Type 1; S. Pneumoniae Type 1, 37° C., 20 hours): 0.2 µg/mL (≈ 0.254 µM); antimicrobial activity on Gram-positive bacteria (Gram-positive bacteria): strong antimicrobial activity; antimicrobial activity in vitro compared with MOM (test strains; data are not shown): clearly much superior to MOM; antimicrobial activity compared with LM-A7 (test strains; except on Haemophilus influenzae, Tables 2 and 3): comparable or superior
